These results are taken from patent US8575089B2, “Composition for preventing or treating inflammation” (University-Industry Cooperation Group of Kyung Hee, priority 2009, dated 2013).

Where no end group is shown, it is not given here.

One assay relates to IL-10. Description: Radiation-irradiating model: anti-inflammatory cytokine IL-10 in blood (ELISA). The note with it: mice, 8 Gy, 5 nmole/kg SP i.v., FIG. 9. The format is in vivo, C57b1/6 mice. As for the experimental part: (§1) 5 nmole/kg of SP dissolved in a physiological saline was injected to a tail vein of C57b1/6 mice (8 weeks, sex; male, n=4, Average weight; 20 g) one day before irradiation and immediately after irradiation. The irradiation was performed at 8 Gy radiation in a Gamma lay radiation irradiator (^137Cs, Atomic Energy of Canada, Mississauga, Canada). The mice were sacrificed at 4.5 hours and one day after irradiation, and then the blood was collected. The part of the blood was used for analyzing CBC (Complete Blood Count) and the remaining blood was used to isolate serum and then analyze cytokines
IL-6 and TNFα that are well known as inflammatory cytokines were analyzed. Specific procedures were as follows: Serum samples stored in […] and reagents, controls, and standard proteins stored in a cold storage were taken out at a room temperature. […] After 30 minutes, 100 μl of stop codon was treated to stop the reaction; the optical density was measured at 450 nm; the amounts of cytokines were converted based on a protein conversion formula by a standard sample; and then the result was shown in FIG. 8. […]
IL-10 that is well known as an anti-inflammatory cytokine was analyzed with ELISA (R&D System) by using the same method as Example 2-2.
A general note: An ELISA detects its analyte on a solid surface through an enzyme-linked reagent.

The test system of assay [1] is regulatory T cells (CD4+, FoxP3+) and anti-inflammatory macrophage M2 (CD11b+, CD206+). Description: Radiation-irradiating model: FACS of regulatory T cells and macrophage M2 in mesentric lymph nodes and small intestine. Format: in vivo, C57b1/6 mice. The following applies: mice, 8 Gy, SP i.v., 4.5 hours after irradiation. As for the experimental part: as §1
The mice were sacrificed at 4.5 hours after irradiation using the same method as Example 3; mesentric lymph nodes were taken for isolating mononuclear cells; then isolated mononuclear cells were fixed at 3.7% formalin for 1 hour; and then anti-inflammatory-related T cells and macrophages were analyzed through FACS (BD FACSCalibur™: 343098, BD Biosciences, Canada) analysis.
Specifically, the mice were sacrificed at 4.5 hours after 8 Gy radiation; the abdomens were cut to open; mesentric lymph nodes and small intestines were taken and then were cut fine; then chopped by using operating scissors; then were treated with collagenase type I (Worthington, USA) and DNase I (Sigma, USA) at 37° C. for 20 minutes; washed, respectively; mononuclear cells were isolated; and then fixed in 3.7% formalin for 1 hour. The mesentric lymph nodes mononuclear cells fixed in formalin were double-stained with CD4 (130-091-608, Miltenyi Biotec, Germany) and FoxP3 (130-093-013, Miltenyi Biotec, Germany) antibody, and then regulatory T cells were analyzed through FACS analysis. In addition, an anti-inflammatory macrophage M2 analysis was performed through FACS analysis after double staining with CD11b (130-081-201, Miltenyi Biotec, Germany) and CD206 (ab64693, abcam, UK) antibody. Since T cells or macrophages in the small intestine mononuclear cells fixed in a formalin accounted for less than 1% of the whole cells, FACS analysis was performed after isolating CD3 (130-092-962, Miltenyi Biotec, Germany)+ cell and CD11b+ cell with MACS isolating method as disclosed in the previous Example 1-(2), respectively. Regulatory T cells were analyzed by double-staining the cells isolated by CD3 with CD4 and FoxP3 antibody and anti-inflammatory macrophage M2 analysis was performed by double-staining the cells isolated by CD11b with CD11b and CD206 antibody.

The nature of assay [2]: Streptozotocin-induced Type I diabetes: blood glucose level and weight. Format: in vivo, ICR mouse. The following applies: for blood glucose level: FIG. 13. As for the experimental part:
Specifically, 5 nmole/kg of SP dissolved in a physiological saline was injected to a tail vein of ICR mouse (8 weeks, sex; male, n=10, Average Weight: 30 g), and then STZ (Sigma, USA) was intraabdominally injected. Streptozotocin was daily injected intraabdominally for two days, and SP was intravenously injected at the same concentration for five days. Only streptozotocin was injected for the control; after one week, blood glucose level was checked to confirm induction of diabetes; then SP was intravenously injected for five days from seven days after STZ injection.
Blood glucose level and weight were investigated. One drop of blood was taken from a tail vein of mouse by one time per 2-3 days, and a blood glucose level was measured by using a glucometer (Roche, Switzerland) and a weight was measured.

Turning to “Substance-P (RPKPQQFFGLM; not fully specified; ends and bridges not checked; UniProt P20366 58-68, looked up)”, the “amount of IL-10 in blood” value with IL-10 (4.5 hours after irradiation) is “increased by at least two times”; in the assay with IL-10 (one day after irradiation), “increased”. Also, the “anti-inflammatory macrophage M2 (CD11b+, CD206+)” value is reported as “increased” in assay [1] (mesentric lymph nodes, FIG. 10) and “increased” in assay [1] (small intestines, FIG. 11). Besides, the “regulatory T cells (CD4+, FoxP3+)” value was “increased” in assay [1] (mesentric lymph nodes, FIG. 10) and “increased” in assay [1] (small intestines, FIG. 11). In addition, the blood glucose level entry in assay [2] (STZ/SP-injected group: 5 nmole/kg SP i.v. for five days at the same time as STZ) was “maintained in normal state”; in assay [2] (STZ/after SP-injected group: SP i.v. for five days from seven days after STZ, after inducing diabetes), “decreased in the short run”. Also, in assay [2] (STZ/SP-injected group: 5 nmole/kg SP i.v. for five days at the same time as STZ, FIG. 14), the weight result is on record as “maintained in normal state”.
